Experimental data from the SangsterLogP compilation.

Experiment: method code SF-AS, from Mayer, M.; Testa, B.; Van, H.; Bornand-Crausaz, A. (1982). Non-additivity amd intramolecular effects in the partition coefficient of omega-functionalized alkylpyridines. Eur J Med Chem, 17(5)453-459.

NC(=O)CCCCc1cccnc1
logP: 0.4

NCCCc1cccnc1
logP: 0.44

OCCCc1ccccn1
logP: 0.58

OCCc1ccccn1
logP: 0.12

OCCCc1ccncc1
logP: 0.58

OCCCCc1cccnc1
logP: 0.92

NCCCCc1ccccn1
logP: 0.86

OCCCCc1ccccn1
logP: 0.86

OCc1ccccn1
logP: 0.06

NCCCc1ccccc1
logP: 1.83

OCc1cccnc1
logP: -0.02

NCc1ccccn1
logP: -0.21

NCCCCCc1cccnc1
logP: 1.41

NCCCCCc1ccccn1
logP: 1.32

OCCCCCc1ccccn1
logP: 1.28

OCCc1ccncc1
logP: 0.1

NC(=O)CCCCc1ccncc1
logP: 0.42

OCCc1cccnc1
logP: 0.12

NCCc1cccnc1
logP: 0

NC(=O)CCc1ccncc1
logP: -0.25

NCCc1ccncc1
logP: -0.01

NC(=O)CCc1cccnc1
logP: -0.26

NCCCc1ccncc1
logP: 0.4

OCCCCCc1cccnc1
logP: 1.41

NCCCCc1ccncc1
logP: 0.86

NC(=O)CCc1ccccn1
logP: -0.27

NCCc1ccccn1
logP: 0.08

NCCCCCc1ccncc1
logP: 1.4

OCCCc1cccnc1
logP: 0.6

OCCCCc1ccncc1
logP: 0.9

NCc1ccncc1
logP: -0.38

NCCCCc1cccnc1
logP: 0.88

OCCCCCc1ccncc1
logP: 1.33

NCCCc1ccccn1
logP: 0.49
